Test results reported in ChEMBL document CHEMBL1129822, “Thermal atropisomerism of fully functionalized vancomycin CD, DE, and CDE ring systems” (Bioorg Med Chem Lett, 1997).

Tests used:
Format in all cases: ADME
[1] = The equilibrium constant at 140 degrees C in DMSO
[2] = Half-life at 140 degrees C in ortho dichloro benzene; conditions: ortho-dichlorobenzene
[3] = Half-life at 140 degrees C in DMSO
[4] = The equilibrium constant at 140 in ortho dichloro benzene
[5] = The equilibrium constant at 125 degrees C in DMSO
[6] = Half-life at 125 degrees C in DMSO
[7] = Half-life at 155 degrees C in DMSO
[8] = The equilibrium constant at 155 degrees C in DMSO

Work on `COC(=O)[C@H]1NC(=O)[C@@H](c2ccc(OC)c(Br)c2)NC(=O)[C@H](NC(=O)OC(C)(C)C)c2cc(O)c(OC)c(c2)Oc2ccc(cc2Cl)[C@H]1O[Si](C)(C)C(C)(C)C` yielded a k [1] of 0.071 h⁻¹, a half-life [2] of 53 h and a half-life [3] of 4.03 h. For the same compound, the k [4] was 0.0054 h⁻¹.

In the case of `COc1c(O)cc2cc1Oc1ccc(cc1[N+](=O)[O-])[C@@H](O)[C@@H](NC(=O)OC(C)(C)C)C(=O)N[C@@H](CC(N)=O)C(=O)N[C@H]2C(=O)OC(C)(C)C`, the k [1] is reported as 2.06 h⁻¹, the k [5] is reported as 0.88 h⁻¹ and the half-life [3] is reported as 0.092 h. It also gave a half-life [6] of 0.28 h.

With `COC(=O)[C@H]1NC(=O)[C@@H](c2ccc(OC)c(Br)c2)NC(=O)[C@H](NC(=O)OC(C)(C)C)c2cc(O)c(OC)c(c2)Oc2ccc(cc2[N+](=O)[O-])[C@H]1O[Si](C)(C)C(C)(C)C` the k [1] was 0.082 h⁻¹, the half-life [7] was 1.06 h and the half-life [2] was 9.77 h. For the same compound, the half-life [3] was 3.52 h, the k [8] was 0.27 h⁻¹ and the k [4] was 0.029 h⁻¹.
